According to paper PMC9948161 (ACS Omega, 2023):

Key:
[1] = system: MCF-7 breast cancer cell line; test: MTT in vitro antiproliferative assay; assay type: cell-based; conditions: Homo sapiens, MCF7, 24 h, read-out: IC50 on the human MCF-7 cell line
[2] = system: MCF-7 cells; test: Cell cycle analysis by propidium iodide flow cytometry; assay type: cell-based, human; conditions: MCF-7, 1.29 μM, 24 h; untreated control 2.4
[3] = system: human red blood cell (HRBC) membrane; test: HRBC membrane stabilization assay; assay type: cell-based; conditions: Erythrocyte, read-out: percentage of inhibition of hemolysis (HRBC membrane stabilization)
[4] = system: MCF-7 cells; test: Wound healing; assay type: cell-based, human; conditions: MCF-7, IC50 concentration
[5] = target: VEGFR2 kinase (Homo sapiens, UniProt P35968); test: biochemical
Sequence of VEGFR2 kinase (P35968 20-1356): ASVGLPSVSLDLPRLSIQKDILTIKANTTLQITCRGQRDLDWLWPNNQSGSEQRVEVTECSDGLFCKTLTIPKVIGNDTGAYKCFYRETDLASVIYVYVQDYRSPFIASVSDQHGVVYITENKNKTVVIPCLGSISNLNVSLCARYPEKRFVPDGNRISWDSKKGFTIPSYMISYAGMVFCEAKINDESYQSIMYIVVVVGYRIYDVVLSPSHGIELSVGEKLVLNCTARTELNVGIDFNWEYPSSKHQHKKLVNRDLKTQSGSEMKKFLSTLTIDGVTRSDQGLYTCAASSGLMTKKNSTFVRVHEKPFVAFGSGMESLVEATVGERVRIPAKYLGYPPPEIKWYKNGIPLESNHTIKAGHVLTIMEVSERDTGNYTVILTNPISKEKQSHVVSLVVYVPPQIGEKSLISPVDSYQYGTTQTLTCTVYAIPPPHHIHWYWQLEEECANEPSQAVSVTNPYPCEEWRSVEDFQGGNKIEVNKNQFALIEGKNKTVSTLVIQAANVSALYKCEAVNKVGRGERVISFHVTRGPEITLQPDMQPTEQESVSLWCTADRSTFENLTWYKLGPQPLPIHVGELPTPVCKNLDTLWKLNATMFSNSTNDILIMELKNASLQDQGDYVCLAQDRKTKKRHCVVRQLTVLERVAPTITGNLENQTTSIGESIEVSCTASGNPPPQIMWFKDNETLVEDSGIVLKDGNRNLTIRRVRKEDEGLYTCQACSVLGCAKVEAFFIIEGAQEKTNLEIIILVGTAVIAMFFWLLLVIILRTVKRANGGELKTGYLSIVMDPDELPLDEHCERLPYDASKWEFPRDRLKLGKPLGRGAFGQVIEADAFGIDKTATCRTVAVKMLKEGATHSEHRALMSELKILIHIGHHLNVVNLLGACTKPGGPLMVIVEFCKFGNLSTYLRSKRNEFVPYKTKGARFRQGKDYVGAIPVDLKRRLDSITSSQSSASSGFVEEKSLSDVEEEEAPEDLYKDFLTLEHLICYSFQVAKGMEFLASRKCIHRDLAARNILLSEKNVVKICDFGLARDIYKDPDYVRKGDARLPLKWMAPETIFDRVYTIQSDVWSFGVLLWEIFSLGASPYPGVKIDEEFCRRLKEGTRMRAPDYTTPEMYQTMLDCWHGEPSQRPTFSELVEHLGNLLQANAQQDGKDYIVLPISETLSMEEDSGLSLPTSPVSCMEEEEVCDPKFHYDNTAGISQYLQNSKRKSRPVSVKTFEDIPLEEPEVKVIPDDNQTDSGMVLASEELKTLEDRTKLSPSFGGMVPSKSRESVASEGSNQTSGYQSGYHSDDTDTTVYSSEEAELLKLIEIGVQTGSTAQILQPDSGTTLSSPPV

Structure (SMILES) | IC50 [1] | IC50 [5] | other results
O=C(CC1Sc2ccccc2NC1=O)c1ccc(Br)cc1 (stereo not shown) [Compound 2d, 2-(2-(4-Bromophenyl)-2-oxoethyl)-2H-benzo[b][1,4]thiazin-3(4H)-one] | 2.3 µM |  | 
O=c1[nH]cc(F)c(=O)[nH]1 [5-fluorouracil, reference compound] | 7.79 µM |  | 
O=C(CC1Sc2ccccc2NC1=O)c1ccc(Cl)cc1 (stereo not shown) [Compound 2c, 2-(2-(4-Chlorophenyl)-2-oxoethyl)-2H-benzo[b] [1, 4]thiazin-3(4H)-one] | 1.29 µM |  | population of cells at G2/M phase [2]: 1%; inhibition at 125 µg/mL [3]: 31.6%; inhibition at 250 µg/mL [3]: 49.8%; inhibition at 500 µg/mL [3]: 75.4%; wound healing percentage (percentage wound healing area) at 0 h ([4]; 0 h, control 66.42 ± 1.20): 66.63 ± 0.66%; reduction in the area of the wound (percentage wound healing area) after 24 h ([4]; 24 h, control 43.23 ± 1.71): 61.98 ± 1.44%
O=C(CC1Sc2ccccc2NC1=O)c1ccc(Cl)c(Cl)c1 (stereo not shown) [Compound 2e, 2-(2-(3,4-Dichlorophenyl)-2-oxoethyl)-2H-benzo[b][1,4]thiazin-3(4H)-one] | 4.98 µM | 0.135 µM | 
O=C(CC1Sc2ccccc2NC1=O)c1ccc(F)c(F)c1 (stereo not shown) [Compound 2b, 2-(2-(3,4-Difluorophenyl)-2-oxoethyl)-2H-benzo[b][1,4]thiazin-3(4H)-one] | 1.37 µM | 0.0593 µM | 
O=C(CC1Sc2ccccc2NC1=O)c1ccc(F)cc1 (stereo not shown) [Compound 2a, 2-(2-(4-Fluorophenyl)-2-oxoethyl)-2H-benzo[b][1,4]thiazin-3(4H)-one] | 2.26 µM | 0.0741 µM | 

Second part, led by results:

IC50 [1] | IC50 [5] | Structure (SMILES) | other results
4.39 µM |  | CCOC(=O)CN1C(=O)C(CC(=O)c2ccc(Cl)cc2)Sc2ccccc21 (stereo not shown) [Compound 3c, Ethyl 2-(2-(2-(4-Chlorophenyl)-2-oxoethyl)-3-oxo-2H-benzo[b][1,4]thiazin-4(3H)-yl)acetate] | inhibition at 125 µg/mL [3]: 27.4%; inhibition at 500 µg/mL [3]: 53.6%
4.5 µM | 0.236 µM | CCOC(=O)CN1C(=O)C(CC(=O)c2ccc(F)c(F)c2)Sc2ccccc21 (stereo not shown) [Compound 3b, Ethyl 2-(2-(2-(3,4-Difluorophenyl)-2-oxoethyl)-3-oxo-2H-benzo [b][1,4]thiazin-4 (3H)-yl)acetate] | 
3.7 µM | 0.0972 µM | Cc1ccc(C(=O)CC2Sc3ccccc3NC2=O)cc1Cl (stereo not shown) [Compound 2f, 2-(2-(3-Chloro-4-methylphenyl)-2-oxoethyl)-2H-benzo[b][1,4]thiazin-3(4H)-one] | 
5.19 µM | 0.632 µM | CCOC(=O)CN1C(=O)C(CC(=O)c2ccc(F)cc2)Sc2ccccc21 (stereo not shown) [Compound 3a, Ethyl 2-(2-(2-(4-Fluorophenyl)-2-oxoethyl)-3-oxo-2H-benzo[b][1,4]thiazin-4(3H)-yl)acetate] | 
3.31 µM |  | CCOC(=O)CN1C(=O)C(CC(=O)c2ccc(Br)cc2)Sc2ccccc21 (stereo not shown) [Compound 3d, Ethyl 2-(2-(2-(4-Bromophenyl)-2-oxoethyl)-3-oxo-2H-benzo[b][1,4]thiazin-4(3H)-yl)acetate] | 
